# Values of other authors in US8372452B2, “Oral herbal composition for the treatment of oral candidiasis” (Piramal Life Sciences Limited, priority 2008, dated 2013).
# System: oral pathogens (Enterococcus faecalis, Streptococcus salivarius, Streptococcus mitis, Streptococcus mutans, Streptococcus sobrinus, Streptococcus sanguinis and …)
# Details: literature report, Silva M L et al. 2007
substance,measurement,value
(−)-cubebin,activity against oral pathogens (microorganisms),exhibited activity
